These results are taken from patent publication US9701958B2, “Method for selecting polynucleotides encoding antigen-specific immunoglobulin subunits” (priority 2012, dated 2017).

The subject of experiment [1] is wild-type vaccinia virus. Type of experiment: cell-based.
For experiment [2], the system named is VHE H5 HX-A56R NEO. It counts as cell-based, vaccinia virus.

Read-outs that look alike come from different tables or passages of the source.

As for `CN[C@@H]1[C@@H](O)[C@@H](O[C@@H]2[C@@H](O)[C@H](O[C@H]3O[C@H]([C@@H](C)O)[C@@H](O)[C@H](O)[C@H]3N)[C@@H](N)C[C@H]2N)OC[C@]1(C)O` [G418], in experiment [1] (0.125 to 2 mg/ml of G418, in words), the “inhibition of amplification of wild-type vaccinia virus” value is on record as “significantly inhibited”. Moreover, the % Inhibition (as a rule, the change of the read-out against control, counted positive when it falls) in experiment [1] (G418 0.125 mg/ml) was 60.8%; in experiment [1] (G418 0.25 mg/ml), 79.4%; in experiment [1] (G418 0.5 mg/ml), 93.7%; in experiment [1] (G418 1 mg/ml), 96.6%; in experiment [1] (G418 2 mg/ml) it was 99.6%; in experiment [2] (G418 0.125 mg/ml), −26.7%. For the same compound, the “% Inhibition” value in experiment [2] (G418 0.25 mg/ml) is reported as −36.7%; in experiment [2] (G418 0.5 mg/ml), −50.0%; in experiment [2] (G418 1 mg/ml) it was −40.0%; in experiment [2] (G418 2 mg/ml), −33.3%. Besides, the Titer in experiment [1] (G418 0.125 mg/ml) came out at 1.58E+07; in experiment [1] (G418 0.25 mg/ml), 8.26E+06; in experiment [1] (G418 0.5 mg/ml), 2.54E+06; in experiment [1] (G418 1 mg/ml), 1.36E+06; in experiment [1] (G418 2 mg/ml), 1.59E+05; in experiment [2] (G418 0.125 mg/ml), 2.88E+07. Moreover, the Titer is on record as 3.11E+07 in experiment [2] (G418 0.25 mg/ml), 3.41E+07 in experiment [2] (G418 0.5 mg/ml), 3.18E+07 in experiment [2] (G418 1 mg/ml) and 3.03E+07 in experiment [2] (G418 2 mg/ml). In addition, the “inhibition of amplification of vaccinia virus expressing heavy chain linked to a neomycin resistance marker” value in experiment [2] is recorded as “no inhibition effect”.
